These results are taken from US8785416B2, “Sulphated disaccharides for the treatment of neurodegenerative and/or neurovascular diseases” (Bioiberica, S.A., priority 2009, dated 2014).

For series [1], the system named is SH-SY5Y human neuroblastoma cell line. Nature of the series: Cell toxicity study, LDH release, SH-SY5Y cells incubated 48 hours. The format is cell-based. The conditions noted are these: 100 μM, 48 hours incubation. The method, then:
The cell toxicity studies were performed on the SH-SY5Y human neuroblastoma cell line, incubating said cells for 48 hours with the compound under study. The cell viability was assessed by quantifying the release of lactate dehydrogenase (LDH), which is a cytoplasmic enzyme which is released into the extracellular medium when the integrity of the cytoplasmic membrane is lost.

In series [2] the test system is SH-SY5Y human neuroblastoma cells. The series can be described thus: Neuroprotection against cell death induced by rotenone plus oligomycin-A (oxidative stress), LDH release. The format is cell-based. On the procedure: An oxidative stress model consists of blocking mitochondrial respiratory chain complexes I and V by means of the combination of rotenone plus oligomycin-A, respectively. As a result of the interruption of the mitochondrial respiratory chain, the cell is unable to continue producing ATP, and the free radicals are generated exceeding the capacity of the cell to neutralize them, and as a result, cell death occurs.
SH-SY5Y human neuroblastoma cells were cultured in a monolayer in 75 cm^2 flasks with a vented stopper. The culture medium used was Dulbecco's Modified Eagle's Medium (DMEM) with a high glucose content ([…]) and supplemented with 10% foetal bovine serum, 2 mM L-Glutamine, 50 IU/mL penicillin and 50 μg/mL streptomycin.
The cell cultures were maintained in an incubator at 37° C. in a humid environment, with 5% CO2 and 95% air. The culture medium was changed twice a week, performing 1:4 passages when the cells reached 70-80% confluence. To perform the passages, the cells were detached by means of their treatment with trypsin-EDTA.
For the cell viability assays, the cells were seeded in sterile 48-well plates at a density of 80,000 cells/well. The experiments were performed 24-48 hours after their seeding.
To evaluate the neuroprotective effect of the compounds, the SH-SY5Y cells were preincubated for 24 hours with the compound under study, and subsequently incubated for 24 hours with the compound under study in the presence of the toxic substances (a combination of 10 μM rotenone and 1 μM oligomycin-A); at the end of this period the cell viability was evaluated by quantifying the release of the LDH enzyme.
The assessment of this enzyme was performed by means of a commercial kit (Cytotoxicity detection kit-LDH; Roche) following the instructions of the company. The samples were colorimetrically analyzed in a plate reader (Labsystems iEMS Reader MF), using the suitable filter at 490-600 nm and obtaining the absorbance values.
The % of cell death was defined as the % of LDH released into the extracellular medium with respect to the total (sum of intra- and extracellular LDH).
Compounds Ic and Ib were studied at four concentrations (0.001, 0.003, 0.01 and 0.03 μM), chondroitin sulphate (supplied by Bioibérica, S.A.) was assayed at two concentrations (10 and 60 μM) and trolox (Sigma Aldrich) was assayed at two concentrations (30 and 300 μM). The experiment also included the baseline (SH-SY5Y cells in the absence of compound and of toxic stimulus) and the control (SH-SY5Y cells cultured in the absence of compound and in the presence of the toxic stimulus rotenone plus oligomycin).

The subject of series [3] is mice (photothrombotic stroke model). Nature of the series: Experimental photothrombotic stroke model, cortical infarction volume. It is filed as in vivo, mouse. The conditions noted are these: 10 mg/kg i.p. From the text: Neuronal death occurs during brain ischemia or stroke; therefore a medicament with a neuroprotective profile can have a therapeutic potential in patients who have suffered from a cerebral infarction or stroke. To explore if the compounds of formula (I) can offer neuroprotection in vivo, the experimental photothrombotic stroke model was used. In the photothrombosis model a focal cerebral infarction is induced in the area of the cortex illuminated by means of a cold light source in mice previously treated with the Rose Bengal stain; this stain is photosensitive and produces free radicals when it is stimulated with light, causing lesions in the surrounding vascular endothelium, which causes platelet aggregation and the formation of thrombi in the microvessels of the cerebral cortex (Non-invasive induction of focal cerebral ischemia in mice by photothrombosis of cortical microvessels: characterization of inflammatory responses, M. Schroeter et al., J Neurosci Methods. 117(1), 43-49. (2002); Melatonin reduces infarction volume in a photothrombotic stroke model in the wild-type but not cyclooxygenase-1-gene knockout mice, L Y. Zhou et al., J Pineal Res. 41(2), 150-156. (2006)).
Adult male Swiss breed mice from Harlan laboratories (Barcelona), with a weight of about 30 g, were used. Once anaesthetised with isoflurane, the mice were placed in a stereotaxic frame, maintaining their rectal temperature at 37±0.5° C. during the entire procedure. Subsequently, the cranium was exposed by means of a dorsomedial incision in the skin and the periosteum was removed. By means of the use of a micromanipulator, a fibre-optic cable was placed to emit a beam of light of 1.9 mm in diameter and 3000° K, connected to a cold light source (Zeiss KL 1500), in 2.0 mm posterior and 3.0 mm lateral to Bregma on the right side. According to the mouse brain atlas (Franklin and Paxinos, 1986), the sensitive-motor cortex, the putamen caudate and the hippocampus are right below this stereotaxic position. Then, the mice were injected with 1 mg of the Rose Bengal photosensitive probe and the brain was illuminated through the intact cranium for 30 minutes. Finally, the skin was sutured and the animals were left in a cage until their recovery under observation.
The animals were sacrificed by decapitation 72 hours after the ischemia. […]
To quantify the cortical cerebral infarction volume, the sections stained with TTC were scanned on both their rostral and caudal part and by means of the image analysis programme ImageJ 1.41 (National Institutes of Health, Bethesda, Md., USA) the area of the ipsi-, contralateral cortex and the cerebral infarction of each of the sections scanned, both in the caudal and rostral part, was quantified. Subsequently, the cerebral infarction volume was calculated. […]

Consider “methyl 2-acetamido-2-deoxy-3-O-(β-D-glucopyranosyluronic acid)-4,6-di-O-sulpho-α-D-glucopyranoside, trisodium salt [compound Ic]”, for which the “cell toxicity (release of LDH)” value in series [1] is on record as “did not show toxicity”. The “maximum statistically significant protection against cell death (% of released LDH) induced by rotenone and oligomycin” value in series [2] (0.03 μM, 24 h preincubation + 24 h with 10 μM rotenone and 1 μM oligomycin-A) is 47%. Further, in series [2] (Ic, Ib at 0.001-0.03 μM vs chondroitin sulphate 10 and 60 μM, trolox 30 and 300 μM), the “protective effect compared with chondroitin sulphate and trolox” value is “more effective than chondroitin sulphate and than trolox”. The cortical infarction volume in series [3] (24 h and 1 h before ischemia and twice a day after, 72 hours, saline 6.1±2.18%, mean and standard deviation) was determined as 2.8±1.95%. For the same substance, the “protection (reduction of cortical infarction volume)” value in series [3] (p<0.001 vs saline) is listed as 53%.
